Entries after “also recorded” stand apart in the source; their conditions may differ.
What was measured:
[1] = Stability under oligonucleotide de-protection conditions, HPLC/MS; assay type: physicochemical; conditions: ammonium hydroxide at 65° C., samples at 15 minutes, 1 and 2 hours
Excerpt: Synthesis of the Conjugates of the Invention customarily involves protecting the nucleobases of the synthesized oligonucleotides by chemical groups. For example, adenine is often protected by a benzoyl protecting group, guanine by isobutyryl, and cytosine by acetyl. These protecting groups should be removed at the end of synthesis, in order to obtain a functional oligonucleotide. This removal is customarily performed in strong basic conditions. For example, the standard protocol of IDT (Iowa, USA) for removal of the protecting groups during synthesis of oligonucleotides comprises incubation with ammonium hydroxide at 65° C. degrees, for 2 hours. In order to evaluate whether the Compound of the Invention can sustain de-protection in these harsh conditions, a model system was constructed, based on the following Model Compound A, having the following structure:
Two mg of this compound were incubated in the above standard conditions used for deprotection. Samples were drawn after 15 minutes, 1 and 2 hours incubation, and evaluated by HPLC/MS, exploring and analyzing the formation of new peaks. […] Therefore, this analogue of the compound of the Invention manifested stability in these relatively harsh basic conditions.

C26 cells = assay: Delivery of 58-mer dsDNA Conjugate into C26 cells, ELISA reader (Example 8); assay type: cell-based, murine; conditions: Cy3 58-mer dsDNA, two MNMs
Method: (§1) 3T3 cells and C26 cells were grown and prepared as described in Example 5 above. Cells were incubated for 1, 2, and 24 hours with a Conjugate comprising a 58-mer double-stranded (ds)DNA, linked to Cy3 fluorophore, and lined to two Apo-Si—C4 moieties. Two concentrations of the Conjugate were tested: 40 nM and 100 nM. Analysis comprised fluorescent microscopy and signal quantification by ELISA reader, as described in Example 5 above. An identical 58-mer dsDNA, not linked to E moieties, served as Control.

3T3 cells = assay: Delivery of 58-mer dsDNA Conjugate into 3T3 cells, ELISA reader (Example 8); assay type: cell-based, murine; conditions: Cy3 58-mer dsDNA, two MNMs
Method: as §1

EGFP gene = EGFP gene silencing in primary culture of hepatocytes of transgenic mice; assay type: cell-based, mouse; conditions: EGFP dsRNA, two MNMs, complex with Histone H2A (2:1 Histone/RNA); 40 nM; 72 hours
Method: Double-stranded RNA sequence, as specified in Example 7 was attached to two MNMs according to Formula (VIIa), wherein a=2, and k=1, designated Apo-Si—C4. The conjugate (40 nM) was then incubated with the histone 2A protein (Histone H2A, Molecular Weight 14 kDa; New England Biolabs, Inc.) for 30 minutes (at a 2:1 Histone/RNA ratio) for generation of RNA+MNM+protein complex. The complex was then incubated with cells of primary culture of hepatocytes of transgenic mice, expressing the EGFP gene. After 72 hours, fluorescence of the EGFP signal was quantified utilizing an ELISA reader, as described in Example 7. […] As evident from the results, this complex was capable of effectively crossing the cell membranes, and moreover, exerting a beneficial biological performance in gene silencing. By comparison to the performance of the Control complex, which was devoid of MNMs, the observed results can be attributed solely to the MNMs of the invention.

3T3-EGFP cells [2] = assay: Uptake of Conjugate into 3T3-EGFP cells with dipole potential modulators phloretin or 6-KC; assay type: cell-based, mouse
Excerpt: Phloretin is an inhibitor of the membrane dipole potential and the related IMEF, while 6-keto-cholestanol (6-KC) is a potent enhancer of the IMEF). Therefore, a potential relationship between the effects of the dipole potential modulators phloretin or 6-KC, and the uptake level of the above Conjugate of the Invention (comprising the Apo-Si—C4 MNM, linked to dsDNA, of the sequence: Sense:/5′-MNM/TT/iCy3/[…] (SEQ ID. No. 9); Anti-sense:/5′-MNM/[…] (SEQ ID. No. 10); wherein Cy3 is a red fluorophore); was examined.
One day before the experiment, 3T3-EGFP cells in the exponential growth phase were plated in 6-well plates, at a density of 5×10^5 cells/well, with DMEM complete medium, without antibiotics. Cells were incubated with phloretin 750 μM at 37° C., or 6-KC 100 μM at 37° C., for one hour. The 6-KC was then washed away, while the phloretin was kept in the medium. The Conjugate as described above was diluted in 500 μl/well of Opti-Mem, and added to the above cells, at a final concentration of 40 nM for two hours. Delivery of the Conjugate was evaluated at 2 hours post transfection. At that time point, cells were trypsinized, supplemented with Hank's Buffered Salt Solution (HBSS buffer; Biological Industries, Israel) and centrifuged for 5 min at 1200 rpm. Cells were then re-suspended with Hank's Buffered Salt Solution, and subjected to analysis using FACSAria III Cell Sorter (BD Biosciences, San Jose, Calif., USA), utilizing the Cell Diva software. For each sample, a total of 10^4 events were collected.

3T3-EGFP cells [3] = assay: Structure/function analysis of polarity: uptake into 3T3-EGFP cells, FACS; assay type: cell-based, mouse; conditions: Cy3 58-mer DNA conjugate, 40 nM
Method: For this purpose, two analogous Conjugates were constructed and evaluated: • (i). A Conjugate of dsDNA, linked to E and E′, each has the structure as set forth in Formula (VIIa); designated Apo-Si—C4: […]
Both these MNM moieties were linked to a 58-mer DNA oligonucleotide, labeled with the Cy3-fluorophore, and were subjected to FACS analysis.
One day before the experiment, 3T3-EGFP cells in the exponential growth phase were plated in 6-well plates, at a density of 0.2-0.5×10^5 cells/well, with DMEM complete medium, without antibiotics. Each of the Cy3-labeled oligonucleotides (with or without the MNMs) was diluted in 500 μl/well of Opti-Mem, and added to the cells, at a final concentration of 40 nM. Delivery of the Conjugates was evaluated at 2-24 hours of incubation. Following the incubation period, cells were trypsinized, supplemented with Hank's Buffered Salt Solution (HBSS buffer; Biological Industries, Israel) and centrifuged for 5 min at 1100 rpm. […] Detection and quantification of the Cy3-positive cell population were performed using measurements of the fluorescence intensity in the cells incubated with the Apo-Si-4C Conjugate, relative to that of the cells incubated with the Control A Conjugate.

**Q.** Which “Degradation under de-protection conditions” value [1] does the source give for CCCCCCN(C(=O)Oc1ccccc1)[C@H]1CCSSC1 [Compound A] here?
**A.** no signs of degradation

**Q.** For [2H]CCCCOc1ccc2c(c1)CCC1C2CCC2(C)C(OCCCOC(C(F)(F)F)(C(F)(F)F)C(F)(F)F)CCC12 (stereo not drawn) [Apo-Si—C4], which “Ratio of signal intensity of the Conjugate versus control dsDNA devoid of MNMs” value (from here on “Ratio”) (C26 cells; 40 nM) is on record?
**A.** 80 fold

**Q.** What about the “Ratio” value (C26 cells; 100 nM) of the same compound?
**A.** 72 fold

**Q.** And the “Ratio” value (3T3 cells; 40 nM)?
**A.** 104 fold

**Q.** And the “Ratio” value (3T3 cells; 100 nM)?
**A.** 101 fold

**Q.** What about the “Reduction of the EGFP signal vs control complex without MNMs” value (EGFP gene) of the same compound?
**A.** 76%

**Q.** What about the “Uptake by cells after 6-keto-cholestanol (Cy3 fluorescence microscopy)” value (3T3-EGFP cells [2]; 40 nM, 2 hours, pre-incubation with 6-KC 100 μM for one hour) of the same compound?
**A.** markedly higher uptake; also recorded: markedly increased uptake

**Q.** And the “Cells labeled (FACS)” value (3T3-EGFP cells [2]; Cy3 dsDNA, MNMs, 40 nM, 2 hours, no modulator)?
**A.** 68%

**Q.** And the “Cells manifesting binding of the Conjugate (FACS)” value (3T3-EGFP cells [2]; Cy3 dsDNA, MNMs, 40 nM, 2 hours, phloretin 750 μM)?
**A.** 1.5%

**Q.** What about the “Uptake by cells after phloretin (flow cytometry)” value (3T3-EGFP cells [2]; pre-incubation with phloretin) of the same compound?
**A.** marked reduction in the uptake

**Q.** And the “Cy3 fluorescent signal in cells (FACS)” value (3T3-EGFP cells [3]; 24 hours of incubation)?
**A.** further augmented

**Q.** And the “Cy3 fluorescent signal in cells (FACS)” value (3T3-EGFP cells [3]; two hours of incubation)?
**A.** strong Cy-3 fluorescent signal

Source: patent US11318206B2, “Compounds and methods for trans-membrane delivery of molecules” (Aposense Ltd., priority 2014, dated 2022)
